Assay: xn = mol fraction of the nth substance listed
Details: 101 kPa, Liquid

CC(=O)OC(C)=O [ethanoic anhydride] + CC(=O)O
Details | mass density [kg/m3] | viscosity [mPa·s]
293.15 K, x2 = 0 | 1080.89 | 0.888
293.15 K, x2 = 0.1 | 1079.28 | 0.905
293.15 K, x2 = 0.2 | 1077.19 | 0.92
293.15 K, x2 = 0.2999 | 1074.93 | 0.934
293.15 K, x2 = 0.3996 | 1072.42 | 0.954
293.15 K, x2 = 0.4999 | 1069.56 | 0.975
293.15 K, x2 = 0.5965 | 1066.68 | 1.004
293.15 K, x2 = 0.6992 | 1063.1 | 1.041
293.15 K, x2 = 0.8004 | 1059.19 | 1.084
293.15 K, x2 = 0.8976 | 1054.94 | 1.145
298.15 K, x2 = 0 | 1074.8 | 0.829
298.15 K, x2 = 0.1 | 1073.24 | 0.844
298.15 K, x2 = 0.2 | 1071.18 | 0.859
298.15 K, x2 = 0.2999 | 1068.96 | 0.872
298.15 K, x2 = 0.3996 | 1066.47 | 0.887
298.15 K, x2 = 0.4999 | 1063.66 | 0.908
298.15 K, x2 = 0.5965 | 1060.8 | 0.933
298.15 K, x2 = 0.6992 | 1057.27 | 0.966
298.15 K, x2 = 0.8004 | 1053.41 | 1.008
298.15 K, x2 = 0.8976 | 1049.21 | 1.057
303.15 K, x2 = 0 | 1068.7 | 0.778
303.15 K, x2 = 0.1 | 1067.18 | 0.793
303.15 K, x2 = 0.2 | 1065.17 | 0.805
303.15 K, x2 = 0.2999 | 1062.98 | 0.819
303.15 K, x2 = 0.3996 | 1060.53 | 0.831
303.15 K, x2 = 0.4999 | 1057.75 | 0.849
303.15 K, x2 = 0.5965 | 1054.93 | 0.874
303.15 K, x2 = 0.6992 | 1051.45 | 0.903
303.15 K, x2 = 0.8004 | 1047.64 | 0.936
303.15 K, x2 = 0.8976 | 1043.48 | 0.985
308.15 K, x2 = 0 | 1062.61 | 0.729
308.15 K, x2 = 0.1 | 1061.12 | 0.742
308.15 K, x2 = 0.2 | 1059.15 | 0.754
308.15 K, x2 = 0.2999 | 1057 | 0.768
308.15 K, x2 = 0.3996 | 1054.57 | 0.777
308.15 K, x2 = 0.4999 | 1051.83 | 0.793
308.15 K, x2 = 0.5965 | 1049.05 | 0.814
308.15 K, x2 = 0.6992 | 1045.62 | 0.842
308.15 K, x2 = 0.8004 | 1041.85 | 0.873
308.15 K, x2 = 0.8976 | 1037.75 | 0.919
313.15 K, x2 = 0 | 1056.49 | 0.688
313.15 K, x2 = 0.1 | 1055.06 | 0.699
313.15 K, x2 = 0.2 | 1053.12 | 0.71
313.15 K, x2 = 0.2999 | 1051 | 0.721
313.15 K, x2 = 0.3996 | 1048.6 | 0.734
313.15 K, x2 = 0.4999 | 1045.9 | 0.748
313.15 K, x2 = 0.5965 | 1043.16 | 0.766
313.15 K, x2 = 0.6992 | 1039.78 | 0.791
313.15 K, x2 = 0.8004 | 1036.06 | 0.82
313.15 K, x2 = 0.8976 | 1032.01 | 0.86
318.15 K, x2 = 0 | 1050.38 | 0.648
318.15 K, x2 = 0.1 | 1048.96 | 0.659
318.15 K, x2 = 0.2 | 1047.07 | 0.666
318.15 K, x2 = 0.2999 | 1044.99 | 0.678
318.15 K, x2 = 0.3996 | 1042.62 | 0.688
318.15 K, x2 = 0.4999 | 1039.96 | 0.703
318.15 K, x2 = 0.5965 | 1037.26 | 0.721
318.15 K, x2 = 0.6992 | 1033.93 | 0.743
318.15 K, x2 = 0.8004 | 1030.27 | 0.77
318.15 K, x2 = 0.8976 | 1026.28 | 0.8
323.15 K, x2 = 0 | 1044.24 | 0.61
323.15 K, x2 = 0.1 | 1042.87 | 0.621
323.15 K, x2 = 0.2 | 1041.01 | 0.627
323.15 K, x2 = 0.2999 | 1038.96 | 0.638
323.15 K, x2 = 0.3996 | 1036.63 | 0.649
323.15 K, x2 = 0.4999 | 1034.01 | 0.661
323.15 K, x2 = 0.5965 | 1031.34 | 0.676
323.15 K, x2 = 0.6992 | 1028.06 | 0.699
323.15 K, x2 = 0.8004 | 1024.46 | 0.723
323.15 K, x2 = 0.8976 | 1020.54 | 0.751
328.15 K, x2 = 0 | 1038.07 | 0.58
328.15 K, x2 = 0.1 | 1036.74 | 0.587
328.15 K, x2 = 0.2 | 1034.94 | 0.595
328.15 K, x2 = 0.2999 | 1032.91 | 0.603
328.15 K, x2 = 0.3996 | 1030.61 | 0.614
328.15 K, x2 = 0.4999 | 1028.04 | 0.625
328.15 K, x2 = 0.5965 | 1025.39 | 0.639
328.15 K, x2 = 0.6992 | 1022.18 | 0.66
328.15 K, x2 = 0.8004 | 1018.64 | 0.68
328.15 K, x2 = 0.8976 | 1014.79 | 0.708
333.15 K, x2 = 0 | 1031.9 | 0.548
333.15 K, x2 = 0.1 | 1030.63 | 0.556
333.15 K, x2 = 0.2 | 1028.83 | 0.562
333.15 K, x2 = 0.2999 | 1026.84 | 0.57
333.15 K, x2 = 0.3996 | 1024.57 | 0.58
333.15 K, x2 = 0.4999 | 1022.05 | 0.59
333.15 K, x2 = 0.5965 | 1019.44 | 0.605
333.15 K, x2 = 0.6992 | 1016.3 | 0.622
333.15 K, x2 = 0.8004 | 1012.82 | 0.64
333.15 K, x2 = 0.8976 | 1009.03 | 0.665
338.15 K, x2 = 0 | 1025.7 | 0.521
338.15 K, x2 = 0.1 | 1024.48 | 0.53
338.15 K, x2 = 0.2 | 1022.71 | 0.533
338.15 K, x2 = 0.2999 | 1020.75 | 0.542
338.15 K, x2 = 0.3996 | 1018.52 | 0.551
338.15 K, x2 = 0.4999 | 1016.04 | 0.558
338.15 K, x2 = 0.5965 | 1013.48 | 0.575
338.15 K, x2 = 0.6992 | 1010.39 | 0.59
338.15 K, x2 = 0.8004 | 1006.97 | 0.605
338.15 K, x2 = 0.8976 | 1003.24 | 0.629

— the NIST ThermoML archive (doi:10.1021/je8003782)
